{
  "source": "patent US20260285872A1",
  "about": "“COMPOUNDS AND METHODS FOR DEGRADING GSPT1” (priority 2023, published 2026)",
  "format_in_all_cases": "cell-based",
  "key": {"GSPT1 [1]": {"molecular_target": "T1, GSPT1 (Homo sapiens, UniProt P15170+Q96SW2)", "T1 sequence (P15170 whole entry)": "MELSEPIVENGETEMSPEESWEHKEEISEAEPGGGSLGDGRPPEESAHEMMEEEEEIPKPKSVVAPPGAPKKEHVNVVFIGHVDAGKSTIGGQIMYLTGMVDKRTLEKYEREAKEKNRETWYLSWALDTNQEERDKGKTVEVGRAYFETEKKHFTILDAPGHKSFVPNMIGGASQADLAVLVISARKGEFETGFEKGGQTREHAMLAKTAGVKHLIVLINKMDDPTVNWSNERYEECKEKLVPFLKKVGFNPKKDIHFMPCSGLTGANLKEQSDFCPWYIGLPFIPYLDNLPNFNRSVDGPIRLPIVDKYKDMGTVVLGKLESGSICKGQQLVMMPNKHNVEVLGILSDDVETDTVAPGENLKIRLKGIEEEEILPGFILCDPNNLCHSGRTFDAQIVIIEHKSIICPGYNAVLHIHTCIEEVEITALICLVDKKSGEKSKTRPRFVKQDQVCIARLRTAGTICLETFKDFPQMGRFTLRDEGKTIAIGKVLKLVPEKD", "T1 sequence (Q96SW2 whole entry)": "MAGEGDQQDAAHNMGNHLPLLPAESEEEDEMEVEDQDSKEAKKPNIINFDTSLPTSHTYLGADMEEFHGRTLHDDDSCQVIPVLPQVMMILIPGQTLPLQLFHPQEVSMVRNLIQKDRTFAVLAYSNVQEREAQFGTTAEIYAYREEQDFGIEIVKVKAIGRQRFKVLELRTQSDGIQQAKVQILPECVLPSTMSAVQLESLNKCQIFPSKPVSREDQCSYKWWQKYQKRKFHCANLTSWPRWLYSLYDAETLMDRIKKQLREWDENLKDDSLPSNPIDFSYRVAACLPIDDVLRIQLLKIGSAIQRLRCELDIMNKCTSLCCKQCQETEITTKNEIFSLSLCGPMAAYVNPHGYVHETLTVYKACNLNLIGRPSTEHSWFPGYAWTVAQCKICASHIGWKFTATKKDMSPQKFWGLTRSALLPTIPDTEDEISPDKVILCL", "T1 sequence (Q16531 whole entry partner)": "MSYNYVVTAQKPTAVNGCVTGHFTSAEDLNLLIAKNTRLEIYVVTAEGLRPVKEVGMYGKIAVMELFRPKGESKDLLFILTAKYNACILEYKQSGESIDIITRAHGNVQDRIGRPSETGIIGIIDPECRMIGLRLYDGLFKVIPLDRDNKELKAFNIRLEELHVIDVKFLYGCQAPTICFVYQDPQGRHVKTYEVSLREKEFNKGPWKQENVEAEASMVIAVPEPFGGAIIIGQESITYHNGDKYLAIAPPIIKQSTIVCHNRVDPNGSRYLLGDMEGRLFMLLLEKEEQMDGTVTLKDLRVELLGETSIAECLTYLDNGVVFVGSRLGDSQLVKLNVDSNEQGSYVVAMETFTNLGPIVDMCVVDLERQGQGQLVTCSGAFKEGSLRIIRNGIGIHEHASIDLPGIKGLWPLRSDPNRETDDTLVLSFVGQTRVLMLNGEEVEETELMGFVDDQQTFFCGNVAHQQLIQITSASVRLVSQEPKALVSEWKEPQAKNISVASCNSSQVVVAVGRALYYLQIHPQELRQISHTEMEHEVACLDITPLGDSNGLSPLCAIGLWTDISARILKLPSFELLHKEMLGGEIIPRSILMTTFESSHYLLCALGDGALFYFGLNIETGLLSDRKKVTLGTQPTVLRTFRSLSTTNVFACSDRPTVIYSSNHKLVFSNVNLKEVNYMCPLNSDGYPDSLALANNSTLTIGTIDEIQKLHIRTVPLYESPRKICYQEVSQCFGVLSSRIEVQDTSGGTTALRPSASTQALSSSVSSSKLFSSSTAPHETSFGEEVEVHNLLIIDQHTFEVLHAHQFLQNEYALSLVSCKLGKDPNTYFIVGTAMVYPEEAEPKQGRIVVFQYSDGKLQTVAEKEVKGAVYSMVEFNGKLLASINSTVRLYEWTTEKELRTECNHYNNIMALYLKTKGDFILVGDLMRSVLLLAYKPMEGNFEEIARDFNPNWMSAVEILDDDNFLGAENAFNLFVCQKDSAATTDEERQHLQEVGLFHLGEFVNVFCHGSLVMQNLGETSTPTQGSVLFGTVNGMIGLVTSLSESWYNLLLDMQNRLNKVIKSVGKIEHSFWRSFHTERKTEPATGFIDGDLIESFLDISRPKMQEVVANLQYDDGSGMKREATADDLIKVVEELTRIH", "test": "GSPT1 degradation, Western Blot, A549 cells, 1 μM, 16 hours", "conditions": "% reduction of GSPT1 compared to DMSO, normalized to GAPDH, read-out: GSPT1 degradation classification", "method": "Compounds of the present disclosure was added to cells (final DMSO concentration of 0.1%) and incubated for 16 hours. GSPT1 levels were determined in A549 cells using Western Blot analysis. […] Protein levels were normalized to GAPDH levels.\nThe efficacy of GSPT1 degradation of a part of compounds of the present disclosure was determined by treating A549 cells at 1 μM (final DMSO concentration of 0.1%) for 16 hours. GSPT1 levels were determined using Western Blot and normalized to GAPDH levels."}, "A549 cells": {"system": "A549 cells", "test": "NSCLC cell viability, CellTiter-Glo, A549 cells", "conditions": "Homo sapiens, 72 hours of treatment, read-out: Cell viability classification", "description": "A549 cells were obtained from Korean Cell Line Bank (KCLB) and grown in RPMI supplemented with 10% FBS. The cells were maintained at 37° C. under 5% CO2.\n(§1) The efficacy of the present disclosure to reduce viability of Non-Small Cell Lung Cancer (NSCLC) cells was assessed using CellTiter-Glo Cell Viability Assay (Promega) according to the manufacturer's protocol. […] The luminescence was normalized to that of DMSO-treated samples. IC50 values were obtained using three-parameter non-linear regressions using Prism (GraphPad).\nThe efficacy of additional compounds of the present disclosure in reducing A549 cell viability was determined by treating A549 cells at various concentrations (final DMSO concentration of 0.1%). Cell viability was measured using the CellTiter-Glo reagent after 72 hours of treatment."}, "HCC827 cells": {"system": "HCC827 cells", "test": "NSCLC cell viability, CellTiter-Glo, HCC827 cells", "conditions": "Homo sapiens, read-out: Cell viability classification", "description": "(§2) HCC827 cells were obtained from Korean Cell Line Bank (KCLB) and grown in RPMI supplemented with 10% FBS. The cells were maintained at 37° C. under 5% CO2.\nas §1\nThe efficacy of additional compounds of the present disclosure in reducing HCC827 cell viability was determined by treating HCC827 cells at various concentrations (final DMSO concentration of 0.1%). Cell viability was measured using the CellTiter-Glo reagent after 72 hours of treatment."}, "GSPT1 [2]": {"molecular_target": "T1, GSPT1", "test": "GSPT1 degradation, Western Blot, HCC827 cells, 1 μM, 16 hours", "conditions": "% reduction of GSPT1 compared to DMSO, normalized to GAPDH, read-out: GSPT1 degradation classification", "description": "as §2\nCompounds of the present disclosure was added to cells (final DMSO concentration of 0.1%) and incubated for 16 hours. GSPT1 levels were determined in HCC827 cells using Western Blot analysis. […] Protein levels were normalized to GAPDH levels.\nThe efficacy of GSPT1 degradation of a part of compounds of the present disclosure was determined by treating HCC827 cells at 1 μM (final DMSO concentration of 0.1%) for 16 hours. GSPT1 levels were determined using Western Blot and normalized to GAPDH levels."}, "[3]": {"conditions": "HCC827 cells, CellTiter-Glo, 72 hours of treatment"}},
  "note": "Read-outs that look alike come from different tables or passages of the source.",
  "data": [
    {"smiles": "O=C1CCC(N2Cc3cc(C(=O)Nc4csc5ccccc45)c(F)cc3C2=O)C(=O)N1", "note": "(stereo not drawn) [Example 91, N-(benzo[b]thiophen-3-yl)-2-(2,6-dioxopiperidin-3-yl)-6-fluoro-1-oxoisoindoline-5-carboxamide]", "values": [
      {"measurement": "inhibition at 1 µM", "setting": "GSPT1 [1]", "result": "> 75", "unit": "%"},
      {"measurement": "IC50", "setting": "A549 cells", "result": "< 1000", "unit": "nM"}
    ]},
    {"smiles": "O=C1CCC(N2Cc3cc(C(=O)Nc4ccccc4)ccc3C2=O)C(=O)N1", "note": "(stereo not drawn) [Example 93, 2-(2,6-dioxopiperidin-3-yl)-1-oxo-N-phenylisoindoline-5-carboxamide]", "values": [
      {"measurement": "IC50", "setting": "A549 cells", "result": "1000 to 30000", "unit": "nM"}
    ]},
    {"smiles": "O=C1CCC(N2Cc3cc(C(=O)N4CCc5c(F)cc(F)cc54)ccc3C2=O)C(=O)N1", "note": "(stereo not drawn) [Example 92, 3-(5-(4,6-difluoroindoline-1-carbonyl)-1-oxoisoindolin-2-yl)piperidine-2,6-dione]", "values": [
      {"measurement": "IC50", "setting": "A549 cells", "result": "< 1000", "unit": "nM"}
    ]},
    {"smiles": "O=C1CCC(N2Cc3cc(C(=O)Nc4ccccc4F)ccc3C2=O)C(=O)N1", "note": "(stereo not drawn) [Example 94, 2-(2,6-dioxopiperidin-3-yl)-N-(2-fluorophenyl)-1-oxoisoindoline-5-carboxamide]", "values": [
      {"measurement": "IC50", "setting": "A549 cells", "result": "> 1000", "unit": "nM"}
    ]},
    {"smiles": "O=C1CCC(N2Cc3cc(C(=O)Nc4nsc5ccccc45)ccc3C2=O)C(=O)N1", "note": "(stereo not drawn) [Example 89, N-(benzo[d]isothiazol-3-yl)-2-(2,6-dioxopiperidin-3-yl)-1-oxoisoindoline-5-carboxamide]", "values": [
      {"measurement": "IC50", "setting": "HCC827 cells; [3]", "result": "> 1000", "unit": "nM"}
    ]},
    {"smiles": "O=C1CCC(N2Cc3cc(C(=O)N4Cc5cccc(F)c5C4)ccc3C2=O)C(=O)N1", "note": "(stereo not drawn) [Example 87, 3-(5-(4-fluoroisoindoline-2-carbonyl)-1-oxoisoindolin-2-yl)piperidine-2,6-dione]", "values": [
      {"measurement": "IC50", "setting": "HCC827 cells; HCC827, 72 h", "result": "< 1000", "unit": "nM"},
      {"measurement": "inhibition at 1 µM", "setting": "GSPT1 [2]", "result": "> 75", "unit": "%"}
    ]},
    {"smiles": "O=C1CCC(N2Cc3cc(C(=O)NC4CCCCC4)ccc3C2=O)C(=O)N1", "note": "(stereo not drawn) [Example 96, N-cyclohexyl-2-(2,6-dioxopiperidin-3-yl)-1-oxoisoindoline-5-carboxamide]", "values": [
      {"measurement": "inhibition at 1 µM", "setting": "GSPT1 [1]", "result": "50 to 75", "unit": "%"},
      {"measurement": "IC50", "setting": "A549 cells", "result": "1000 to 30000", "unit": "nM"}
    ]},
    {"smiles": "O=C1CCC(N2Cc3cc(C(=O)Nc4cscn4)ccc3C2=O)C(=O)N1", "note": "(stereo not drawn) [Example 90, 2-(2,6-dioxopiperidin-3-yl)-1-oxo-N-(thiazol-4-yl)isoindoline-5-carboxamide]", "values": [
      {"measurement": "IC50", "setting": "HCC827 cells; [3]", "result": "> 1000", "unit": "nM"}
    ]},
    {"smiles": "O=C1CCC(N2Cc3cc(C(=O)N4Cc5ccc(F)cc5C4)ccc3C2=O)C(=O)N1", "note": "(stereo not drawn) [Example 88, 3-(5-(5-fluoroisoindoline-2-carbonyl)-1-oxoisoindolin-2-yl)piperidine-2,6-dione]", "values": [
      {"measurement": "IC50", "setting": "HCC827 cells; HCC827, 72 h", "result": "< 1000", "unit": "nM"},
      {"measurement": "inhibition at 1 µM", "setting": "GSPT1 [2]", "result": "> 75", "unit": "%"}
    ]},
    {"smiles": "O=C1CCC(N2Cc3cc(C(=O)N4CCc5c(Cl)ccc(F)c54)ccc3C2=O)C(=O)N1", "note": "(stereo not drawn) [Example 86, 3-(5-(4-chloro-7-fluoroindoline-1-carbonyl)-1-oxoisoindolin-2-yl)piperidine-2,6-dione]", "values": [
      {"measurement": "IC50", "setting": "HCC827 cells; HCC827, 72 h", "result": "> 1000", "unit": "nM"}
    ]},
    {"smiles": "O=C1CCC(N2Cc3cc(C(=O)Nc4cccc5cccnc45)ccc3C2=O)C(=O)N1", "note": "(stereo not drawn) [Example 95, 2-(2,6-dioxopiperidin-3-yl)-1-oxo-N-(quinolin-8-yl)isoindoline-5-carboxamide]", "values": [
      {"measurement": "IC50", "setting": "A549 cells", "result": "> 1000", "unit": "nM"}
    ]}
  ]
}
